# In publication PMC6192261 (Biochemical and biophysical research communications, 2018):
# Molecular target: NgDapB (4-hydroxy-tetrahydrodipicolinate reductase from Neisseria gonorrhoeae) (Neisseria gonorrhoeae, UniProt Q5F5Y7)
# Assay: isothermal titration calorimetry
# Format: binding
# NgDapB (4-hydroxy-tetrahydrodipicolinate reductase from Neisseria gonorrhoeae), sequence (Q5F5Y7 whole entry): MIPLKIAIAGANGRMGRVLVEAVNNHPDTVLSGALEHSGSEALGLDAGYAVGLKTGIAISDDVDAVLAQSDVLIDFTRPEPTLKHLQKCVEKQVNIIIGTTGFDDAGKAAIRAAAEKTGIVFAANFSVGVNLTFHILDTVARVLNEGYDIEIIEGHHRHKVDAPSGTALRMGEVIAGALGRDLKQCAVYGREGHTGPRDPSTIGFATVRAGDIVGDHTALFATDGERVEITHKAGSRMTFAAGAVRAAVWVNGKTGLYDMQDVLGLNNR
row,Structure (SMILES),Kd
1,"O=C(O)c1cccc(C(=O)O)n1 [2,6-PDC, 2,6-pyridine dicarboxylic acid]",21.2 ± 0.7 µM
2,NC(=O)C1=CN([C@@H]2O[C@H](COP(=O)(O)OP(=O)(O)OC[C@H]3O[C@@H](n4cnc5c(N)ncnc54)[C@H](OP(=O)(O)O)[C@@H]3O)[C@@H](O)[C@H]2O)C=CC1 [NADPH],4.8 ± 0.6 µM
3,NC(=O)C1=CN([C@@H]2O[C@H](COP(=O)(O)OP(=O)(O)OC[C@H]3O[C@@H](n4cnc5c(N)ncnc54)[C@H](O)[C@@H]3O)[C@@H](O)[C@H]2O)C=CC1 [NADH],2.5 ± 0.5 µM
